Measured values: the NIST ThermoML archive (doi:10.1016/j.fluid.2011.07.002)
Numbers after ± are expanded uncertainties.

Conditions: Liquid, Closed cell (Static) method

| SMILES | vapor or sublimation pressure (278.15 K) [kPa] | vapor or sublimation pressure (283.15 K) [kPa] | vapor or sublimation pressure (288.15 K) [kPa] | vapor or sublimation pressure (293.15 K) [kPa] | vapor or sublimation pressure (298.15 K) [kPa] | vapor or sublimation pressure (303.15 K) [kPa] | vapor or sublimation pressure (308.15 K) [kPa] | vapor or sublimation pressure (313.15 K) [kPa] | vapor or sublimation pressure (318.15 K) [kPa] | vapor or sublimation pressure (323.15 K) [kPa] |
| --- | --- | --- | --- | --- | --- | --- | --- | --- | --- | --- |
| CCO [ethanol] | 2.264 ± 0.021 | 3.147 ± 0.024 | 4.327 ± 0.032 | 5.876 ± 0.04 | 7.798 ± 0.051 | 10.41 ± 0.066 | 13.71 ± 0.084 | 17.9 ± 0.1 | 23.06 ± 0.13 | 29.46 ± 0.15 |
| CC12CCC(CC1)C(C)(C)O2 [1,3,3-trimethyl-2-oxabicyclo[2.2.2]octane] | 0.071 ± 0.002 | 0.093 ± 0.002 | 0.13 ± 0.002 | 0.178 ± 0.003 | 0.253 ± 0.003 | 0.346 ± 0.004 | 0.477 ± 0.006 | 0.627 ± 0.007 | 0.828 ± 0.009 | 1.101 ± 0.011 |
